For orientation: IC50 means the midpoint of a concentration-inhibition curve.

Drawing on ChEMBL document CHEMBL5465560, “Selectivity Literature for EUbOPEN Chemogenomic Library” (2024), this text covers % of control and IC50 for five molecules.

Assay [1] deals with Mitogen-activated protein kinase 14 (Homo sapiens, UniProt Q16539). Nature of the assay: Selectivity interaction (KinomeScan (DiscoverX)) EUB0000666a MAPK14. As to conditions: at 10 µM.
Assay [2] deals with Casein kinase I isoform gamma-3 (Homo sapiens) (UniProt Q9Y6M4). Nature of the assay: Selectivity interaction (KinomeScan (DiscoverX)) EUB0000607a CSNK1G3. As to conditions: at 10 µM.
Sequence of Casein kinase I isoform gamma-3 (Homo sapiens) (Q9Y6M4 whole entry, looked up, canonical isoform): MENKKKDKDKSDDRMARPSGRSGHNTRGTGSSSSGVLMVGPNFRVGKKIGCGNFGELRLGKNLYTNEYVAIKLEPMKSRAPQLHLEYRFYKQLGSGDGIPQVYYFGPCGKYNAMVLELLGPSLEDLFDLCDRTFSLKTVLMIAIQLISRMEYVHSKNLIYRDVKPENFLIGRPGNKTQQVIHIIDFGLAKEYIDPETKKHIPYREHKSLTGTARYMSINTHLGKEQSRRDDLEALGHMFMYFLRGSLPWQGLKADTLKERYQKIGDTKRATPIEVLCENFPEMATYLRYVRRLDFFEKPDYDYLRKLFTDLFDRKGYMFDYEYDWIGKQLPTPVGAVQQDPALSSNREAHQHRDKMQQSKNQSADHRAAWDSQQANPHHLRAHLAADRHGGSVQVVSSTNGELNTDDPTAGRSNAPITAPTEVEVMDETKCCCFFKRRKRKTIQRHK
Assay [3] has as its target T1, Tyrosine-protein kinase JAK3 (Homo sapiens, UniProt P52333).
T1 sequence (P52333 whole entry): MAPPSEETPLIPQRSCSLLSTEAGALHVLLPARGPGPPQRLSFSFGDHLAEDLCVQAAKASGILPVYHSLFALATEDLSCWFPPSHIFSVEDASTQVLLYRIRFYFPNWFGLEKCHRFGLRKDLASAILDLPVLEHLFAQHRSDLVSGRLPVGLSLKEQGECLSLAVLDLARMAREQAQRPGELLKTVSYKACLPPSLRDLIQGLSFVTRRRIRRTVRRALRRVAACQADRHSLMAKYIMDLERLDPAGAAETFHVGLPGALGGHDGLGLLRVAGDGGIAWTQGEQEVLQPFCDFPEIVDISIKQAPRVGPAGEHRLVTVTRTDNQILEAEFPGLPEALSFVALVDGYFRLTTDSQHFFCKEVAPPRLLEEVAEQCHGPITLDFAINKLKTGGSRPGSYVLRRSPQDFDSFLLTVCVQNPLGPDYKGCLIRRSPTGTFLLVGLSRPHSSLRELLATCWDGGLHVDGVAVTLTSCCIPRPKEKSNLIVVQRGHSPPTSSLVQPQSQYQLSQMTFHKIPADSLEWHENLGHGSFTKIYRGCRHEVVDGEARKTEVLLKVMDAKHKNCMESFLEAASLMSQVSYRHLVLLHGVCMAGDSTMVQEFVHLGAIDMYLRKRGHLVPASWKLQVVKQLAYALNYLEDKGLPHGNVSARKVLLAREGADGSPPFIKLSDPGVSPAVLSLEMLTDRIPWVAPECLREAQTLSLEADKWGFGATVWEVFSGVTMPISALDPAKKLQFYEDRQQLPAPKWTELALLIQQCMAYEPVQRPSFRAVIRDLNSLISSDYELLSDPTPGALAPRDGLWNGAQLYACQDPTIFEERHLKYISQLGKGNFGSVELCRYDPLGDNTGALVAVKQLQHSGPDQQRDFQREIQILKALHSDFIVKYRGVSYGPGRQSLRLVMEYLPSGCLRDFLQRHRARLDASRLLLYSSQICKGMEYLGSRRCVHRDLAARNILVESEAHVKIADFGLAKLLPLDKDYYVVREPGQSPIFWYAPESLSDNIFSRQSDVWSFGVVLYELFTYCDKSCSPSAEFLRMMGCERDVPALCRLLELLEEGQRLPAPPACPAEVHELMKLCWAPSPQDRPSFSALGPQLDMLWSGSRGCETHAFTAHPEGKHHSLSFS
Nature of the assay: Selectivity interaction (Kinase panel (33PanQinase(R) Activity Assay)) EUB0000877a JAK3.

The target of assay [4] is T2, Serine/threonine-protein kinase TAO2 (Homo sapiens) (UniProt Q9UL54).
T2 sequence (whole entry): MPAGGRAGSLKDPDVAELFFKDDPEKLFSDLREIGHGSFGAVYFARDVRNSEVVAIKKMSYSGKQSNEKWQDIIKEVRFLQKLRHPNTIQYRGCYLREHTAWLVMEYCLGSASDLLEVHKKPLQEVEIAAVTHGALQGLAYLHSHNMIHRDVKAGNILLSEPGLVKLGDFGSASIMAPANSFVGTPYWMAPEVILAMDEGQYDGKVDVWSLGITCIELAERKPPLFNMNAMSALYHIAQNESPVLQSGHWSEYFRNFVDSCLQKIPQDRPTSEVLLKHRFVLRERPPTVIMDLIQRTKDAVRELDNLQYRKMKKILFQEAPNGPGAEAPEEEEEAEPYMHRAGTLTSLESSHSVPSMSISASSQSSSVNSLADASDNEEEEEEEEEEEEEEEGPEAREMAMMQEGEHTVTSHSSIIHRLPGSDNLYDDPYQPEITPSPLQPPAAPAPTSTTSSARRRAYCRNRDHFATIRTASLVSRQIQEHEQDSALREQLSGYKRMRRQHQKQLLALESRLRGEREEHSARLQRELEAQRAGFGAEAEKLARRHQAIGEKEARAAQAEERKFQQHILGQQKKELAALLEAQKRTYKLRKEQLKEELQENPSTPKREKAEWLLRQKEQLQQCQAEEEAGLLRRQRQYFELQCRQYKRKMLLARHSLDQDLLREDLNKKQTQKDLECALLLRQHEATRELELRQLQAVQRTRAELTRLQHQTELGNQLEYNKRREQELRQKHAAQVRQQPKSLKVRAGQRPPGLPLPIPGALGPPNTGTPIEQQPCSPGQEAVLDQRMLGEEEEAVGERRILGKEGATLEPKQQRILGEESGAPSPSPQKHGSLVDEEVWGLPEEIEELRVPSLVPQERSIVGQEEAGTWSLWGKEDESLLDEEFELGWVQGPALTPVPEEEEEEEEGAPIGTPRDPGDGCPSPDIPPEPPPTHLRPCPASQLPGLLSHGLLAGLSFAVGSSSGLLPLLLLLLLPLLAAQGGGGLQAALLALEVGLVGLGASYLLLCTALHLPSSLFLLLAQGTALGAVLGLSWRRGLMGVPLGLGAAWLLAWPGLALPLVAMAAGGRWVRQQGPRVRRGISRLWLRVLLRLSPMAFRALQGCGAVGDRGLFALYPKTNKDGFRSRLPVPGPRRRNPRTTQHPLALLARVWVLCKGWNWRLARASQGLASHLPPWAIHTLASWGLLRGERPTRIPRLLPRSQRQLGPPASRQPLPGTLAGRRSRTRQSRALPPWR
The assay is described as follows: Selectivity interaction (KinomeScan (DiscoverX)) EUB0000655a TAOK2. The conditions noted are these: at 10 µM.

Assay [5] concerns the target Cyclin-dependent kinase-like 3 (Homo sapiens) (UniProt Q8IVW4). Nature of the assay: Selectivity interaction (KinomeScan (DiscoverX)) EUB0001079a CDKL3. As to conditions: at 1 µM.

Sequence of Cyclin-dependent kinase-like 3 (Homo sapiens) (Q8IVW4 whole entry, looked up): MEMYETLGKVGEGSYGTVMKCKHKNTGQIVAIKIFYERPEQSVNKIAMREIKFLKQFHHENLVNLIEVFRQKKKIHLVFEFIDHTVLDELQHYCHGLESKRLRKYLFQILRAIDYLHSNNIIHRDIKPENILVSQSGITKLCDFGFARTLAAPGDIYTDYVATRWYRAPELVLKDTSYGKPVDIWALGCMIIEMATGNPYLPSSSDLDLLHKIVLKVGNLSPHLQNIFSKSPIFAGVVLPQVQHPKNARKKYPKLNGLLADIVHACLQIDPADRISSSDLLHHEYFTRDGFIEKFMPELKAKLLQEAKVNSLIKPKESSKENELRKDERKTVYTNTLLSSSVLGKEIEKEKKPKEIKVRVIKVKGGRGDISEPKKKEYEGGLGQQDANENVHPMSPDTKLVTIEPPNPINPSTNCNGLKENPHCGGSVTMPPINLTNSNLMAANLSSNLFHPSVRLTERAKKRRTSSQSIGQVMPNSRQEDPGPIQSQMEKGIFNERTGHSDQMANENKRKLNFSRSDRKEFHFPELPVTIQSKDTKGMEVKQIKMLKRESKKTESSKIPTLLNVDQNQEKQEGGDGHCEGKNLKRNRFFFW
Sequence of Mitogen-activated protein kinase 14 (Q16539 whole entry, canonical isoform): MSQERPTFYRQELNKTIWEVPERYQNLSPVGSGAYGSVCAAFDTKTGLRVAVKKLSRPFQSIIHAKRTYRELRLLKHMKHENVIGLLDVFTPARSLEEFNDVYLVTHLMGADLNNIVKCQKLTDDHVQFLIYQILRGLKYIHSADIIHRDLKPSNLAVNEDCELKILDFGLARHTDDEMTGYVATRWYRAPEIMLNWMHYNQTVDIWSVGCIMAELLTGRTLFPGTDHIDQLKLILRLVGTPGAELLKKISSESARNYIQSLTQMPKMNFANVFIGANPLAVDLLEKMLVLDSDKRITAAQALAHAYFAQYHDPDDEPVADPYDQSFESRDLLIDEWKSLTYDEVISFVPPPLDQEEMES

Molecule `O=C(NOC[C@H](O)CO)c1ccc(F)c(F)c1Nc1ccc(I)cc1F` had a % of control in assay [1] of 100%. As to `CNC(=O)Nc1ccc(-c2nc(N3CC4CCC(C3)O4)c3cnn(C4CCC5(CC4)OCCO5)c3n2)cc1`, the % of control in assay [2] was 48%. `CCC(=O)N1CC[C@H](Nc2ncnc3c2CN(c2cnc(OC)c(C(F)(F)F)c2)CC3)C1` [LENIOLISIB] came in with an IC50 in assay [3] of over 10 µM. `CN(C)CCOc1ccc(-c2nc(-c3ccncc3)c(-c3ccc4c(c3)CC/C4=N\O)[nH]2)cc1`: the % of control in assay [4] came out at 65%.

With `Nc1cnc(N2CCc3cc(S(=O)(=O)Nc4c(F)cc(Cl)cc4F)cc(N4CCCC4=O)c32)nc1` [TP-020n], the % of control in assay [5] amounted to 100%.
